Reference: patent publication US20070179123A1, “Methods and compositions for treating diseases associated with pathogenic proteins” (priority 2005, published 2007)
In brackets after ≈: the same amount, converted by molar mass. Several values for one entry are separate records, joined by “and”; a condition that tells them apart may be missing. Equal entries are not always repeated.

Experiments:
amyloid peptide = amyloid peptide (Homo sapiens, UniProt P05067); experiment: Inhibition of amyloid fibrillogenesis, Congo Red assay
Chain of amyloid peptide (P05067 672-713): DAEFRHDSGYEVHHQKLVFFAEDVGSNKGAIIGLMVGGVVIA

[1] = target: PrP^Sc in RML-infected N2a cells (Mus musculus, UniProt P04925); experiment: cell-based; conditions: for IC50: IC50 for purging of PRP^Sc in RML-infected N2a cells
Chain of PrP^Sc in RML-infected N2a cells (P04925 23-230 limits assumed): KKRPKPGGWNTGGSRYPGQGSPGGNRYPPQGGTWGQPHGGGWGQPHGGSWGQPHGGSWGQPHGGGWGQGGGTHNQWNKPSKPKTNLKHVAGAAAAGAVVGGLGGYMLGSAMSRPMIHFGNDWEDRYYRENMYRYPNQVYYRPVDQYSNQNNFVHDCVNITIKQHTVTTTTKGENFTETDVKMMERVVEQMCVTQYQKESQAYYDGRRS

Aβ42 fibrils = Aβ42 fibrils (Homo sapiens, UniProt P05067); experiment: Fibril disassociation gel assay; assay type: biochemical; conditions: 3-100 μg/ml compound
Chain of Aβ42 fibrils (P05067 672-713, species assumed): as the sequence (P05067 672-713) above
Experimental: (§1) The 40 μM solution was used in fibrillogenesis assay, as described below. The 60 μM peptide solution was undisturbed for six months and allowed to form fibrils, and was utilized in a fibril disassociation assay.
(§2) Mefloquin was dissolved in DMSO and diluted 100 fold into the final reaction mixture, keeping the DMSO concentration constant at 1% (v/v). After incubation, 10 ul of each sample was mixed with 2.5 μl of 4×SDS-sample buffer (Invitrogen), and loaded onto a precast 12% BT gel (Invitrogen). The electrophoresis was run with MES running buffer (Invitrogen) at 200V, and the gels were stained using a silverXpress silver staining kit (Invitrogen). The lane assignments are as follows: Lane 1: molecular weight markers, 2; 40 μM fresh Aβ42, Lanes 3-7: 40 μM Aβ42 with mefloquin from 0, 3, 10, 30 to 100 μg/ml. Lanes 8-12: 10 μl Aβ42 fibrils with mefloquin from 0, 3, 10, 30 to 100 μg/ml.
(§3) Gels were photographed and scanned, and the band densities was analyzed using NIH Imagequant, version 5.2 (GE Healthcare, Sunnyvale, Calif.).

[2] = tested on: yeast PSI^+ (the yeast prion protein Sup35); experiment: microbe, parasite or virus in culture; assay type: cell-based
[3] = target: PrP^Sc in 22L-infected N2a cells (Mus musculus, UniProt P04925); experiment: cell-based; conditions: for IC50: IC50 for purging of PRP^Sc in 22L-infected N2a cells
Chain of PrP^Sc in 22L-infected N2a cells (P04925 23-230 limits assumed): as the sequence (P04925 23-230 limits assumed) above

[4] = target: yeast prion protein Sup-NM (Saccharomyces cerevisiae, UniProt P05453); experiment: biochemical; conditions: for IC50: IC50 for inhibition of Sup35 yeast prion polymerization
Chain of yeast prion protein Sup-NM (P05453 1-254 limits assumed): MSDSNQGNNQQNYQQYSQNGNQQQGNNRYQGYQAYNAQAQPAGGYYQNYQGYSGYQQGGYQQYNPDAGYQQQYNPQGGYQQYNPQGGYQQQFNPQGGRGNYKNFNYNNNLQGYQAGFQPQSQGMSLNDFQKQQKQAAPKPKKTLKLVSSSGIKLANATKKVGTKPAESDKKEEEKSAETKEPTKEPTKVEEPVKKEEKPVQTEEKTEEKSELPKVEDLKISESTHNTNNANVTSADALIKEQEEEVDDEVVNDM

Aβ42 = target: T1, Aβ42 (Homo sapiens, UniProt P05067); experiment: Amyloid fibrillogenesis gel assay; assay type: biochemical; conditions: 40 μM Aβ42, 3-100 μg/ml compound, 5 days
T1 construct: 40 μM fresh Aβ42, Lanes 3-7: 40 μM Aβ42 with mefloquin
T1 sequence (P05067 672-713, species assumed): as the sequence (P05067 672-713) above
Experimental: as §1, §2, §3

22L-infected N2a cells = experiment: Toxicity seen in 22L-infected N2a cell assay (light microscopy); assay type: cell-based, mouse; conditions: @ 10 μM
Experimental: 10 mM solutions of tafenoquine were prepared and diluted in DMSO and then into PBS prior to being introduced to the cell medium. 5 μL of solutions were added to the cell medium. DMSO concentrations in the cell media were never higher than 0.5% (v/v). After tafenoquine was added, the cells were incubated for 5 days at 37° C. in a CO2 incubator before being lysed. Prior to cell lysis, the cells were inspected by light microscopy for toxicity, bacterial contamination, and density compared to controls. After removal of the cell media, 50 μL of lysis buffer was added to each well. Lysis buffer was composed of 0.5% (w/v) Triton X-100, 0.5% (w/v) sodium deoxycholate, 5 mM Tris-HCl, pH 7.4 at 4° C., 5 mM EDTA, and 150 mM NaCl. Five minutes after adding lysis buffer, 25 μL of 0.1 mg/mL PK (Calbiochem) in TBS was added to each well and incubated at 37° C. for 50 minutes. 225 μL of 1 mM Pefabloc (Boehringer Mannheim) was then added to each well to inhibit PK activity. 250 μL of 1 mM Pefabloc was added to samples that were not PK-treated.

COc1cc(NCCCCCNC(C)C)c2nccc(C)c2c1
IC50 (amyloid peptide): ~15.8 µM

C=CC1CN2CCC1CC2[C@@H](O)c1ccnc2ccccc12 (stereo partly drawn)
IC50 [1]: 6 µM

C=CC1CN2CCC1CC2[C@@H](O)c1ccnc2ccc(OC)cc12 (stereo partly drawn)
IC50 [1]: 3 µM

OC(c1cc(C(F)(F)F)nc2c(C(F)(F)F)cccc12)C1CCCCN1 (racemic) [mefloquine, DL-erythro-α-2-piperidyl-2,8-bis(trifluoromethyl)-4-quinolinemethanol, reference compound]
disassociation of amyloid fibrils, gel assay (in words) (Aβ42 fibrils): increase of monomeric amyloid peptide | inhibition of the induction of PSI+ (in words) [2]: concentration dependent inhibition | IC50 [3]: 1.27 µM and 1.2 µM | inhibition at 150 µg/mL ([4]; read-out: inhibition of the polymerization of Sup-NM): ~55% | IC50 [1]: 0.5 µM | inhibition of fibrillogenesis of amyloid peptide, gel assay (in words) (Aβ42): inhibited fibrillogenesis

Oc1ccc(Cl)c2cccnc12
Toxicity (note in the 22L-infected N2a cells column) (22L-infected N2a cells): Toxic @ 10 μM

CCN(CC)CCCC(C)Nc1cc(OC)cc2c(C)ccnc12 (stereo not drawn)
IC50 [3]: 3 to 5 µM

CCCCCCN(CCCCCC)CCCCCCNc1cc(OC)cc2c(C)ccnc12
IC50 (amyloid peptide): < 11 µM

CCC1CN2CCC1CC2[C@@H](O)c1ccnc2ccc(OC)cc12 (stereo partly drawn)
Toxicity (note in the RML-infected N2a cells column) (RML-infected N2a cells): (toxic @ μM)

COc1cc(CO)c2c(Oc3cccc(C(F)(F)F)c3)c(OC)cc(NC(C)CCCN)c2n1 (stereo not drawn) [compound 8]
IC50 (amyloid peptide): ~10.4 µM

C=CC1CN2CCC1CC2[C@H](O)c1ccnc2ccc(OC)cc12 (stereo partly drawn)
IC50 [1]: 6 µM

CCC1CN2CCC1CC2[C@H](O)c1ccnc2ccc(OC)cc12 (stereo partly drawn)
IC50 [1]: 12.5 µM

COc1cc(C)c2c(Oc3cccc(C(F)(F)F)c3)c(OC)cc(NC(C)CCCN)c2n1 (racemic) [tafenoquine, (±)-8-[(4-amino-1-methylbutyl)amino]-2,6-dimethoxy-4-methyl-5-(3-trifluoromethylphenoxy)quinoline]
IC50 ([2]; Saccharomyces cerevisiae, 24 h, read-out: IC50 for inhibition of induction of PSI+): 4.5 µg/mL (≈ 9.71 µM) | IC50 [3]: > 2.2 µM | IC50 ([4]; thioflavin T, 25° C.): 11.2 µM | inhibition of Sup-NM amyloid polymerization (in words) ([4]; concentrations up to 200 μg/mL): nearly complete inhibition | IC50 [1]: 0.716 µM and 0.72 µM

COc1cc(NC(C)CCCN)c2ncccc2c1 (stereo not drawn)
IC50 [1]: < 10 µM

COc1cc(NC(C)CCC(C)(C)N)c2nccc(C)c2c1Oc1cccc(C(F)(F)F)c1 (stereo not drawn)
IC50 (amyloid peptide): 32.5 to 65 µM

C=CC1CN2CCC1CC2[C@H](O)c1ccnc2ccccc12 (stereo partly drawn)
IC50 [1]: 18 µM

C=CC1CN2CCC1CC2C(O)c1ccnc2ccc(OC)cc12 (stereo not drawn)
IC50 [3]: 3 to 5 µM

COc1cc(NC(C)CCCN)c2nccc(C)c2c1Oc1cccc(C(F)(F)F)c1 (stereo not drawn) [compound 3]
disassociation of amyloid fibrils, gel assay (in words) (Aβ42 fibrils): increase of monomeric amyloid peptide | IC50 [3]: 0.508 µM and 1.2 µM | IC50 ([4]; thioflavin T, 25° C.): ~34.6 µM and 34.6 µM | IC50 [1]: 0.609 µM and 0.54 µM | IC50 (amyloid peptide): 23.1 µM | inhibition of fibrillogenesis of amyloid peptide, gel assay (in words) (Aβ42): inhibited fibrillogenesis

COc1cc(C)c2c(Oc3cccc(C(F)(F)F)c3)c(OC)cc(NC(C)CCCNO)c2n1 (stereo not drawn)
IC50 [1]: ~10.4 µM

(±)-8-[(4-amino-1-methylbutyl) amino]-2,6-dimethoxy-4-methyl-5-(3-trifluoromethylphenoxy)quinoline [tafenoquine]
IC50 for inhibition of induction of PSI+ ([2]; 24 h with 50 μM copper sulfate): 4.5 µg/mL | IC50 for purging of PRP^Sc in 22L-infected N2a cells [3]: 0.44 µg/mL | IC50 for inhibition of Sup35 yeast prion polymerization ([4]; thioflavin T, 25° C.): 5.2 ± 1.1 µg/mL | IC50 for purging of PRP^Sc in RML-infected N2a cells [1]: 0.332 µg/mL
